# Tests used:
# BRM = BRM (Homo sapiens, UniProt P51531); test: ATPase catalytic activity assay of BRM (ADP-Glo); assay type: biochemical; details: for IC50: read-out: BRM IC50 (μM)*
# Outline: (§1)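 Once the enzyme reaction finished, residual ATP is removed with ADP-Glo Reagent over 40 minutes at room temperature. Kinase Detection Reagent then converts product ADP into ATP during a 60-minute room-temperature incubation, and the luciferase signal is read.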
# BRG-1 = BRG-1 (Homo sapiens, UniProt P51532); test: ATPase catalytic activity assay of BRG-1 (ADP-Glo); assay type: biochemical; details: ATPase catalytic activity, ADP-Glo; for IC50: read-out: BRG1 IC50 (μM)*; for Emax: read-out: BRG1 Max % Inhibition
# Chain of BRG-1 (P51532 whole entry): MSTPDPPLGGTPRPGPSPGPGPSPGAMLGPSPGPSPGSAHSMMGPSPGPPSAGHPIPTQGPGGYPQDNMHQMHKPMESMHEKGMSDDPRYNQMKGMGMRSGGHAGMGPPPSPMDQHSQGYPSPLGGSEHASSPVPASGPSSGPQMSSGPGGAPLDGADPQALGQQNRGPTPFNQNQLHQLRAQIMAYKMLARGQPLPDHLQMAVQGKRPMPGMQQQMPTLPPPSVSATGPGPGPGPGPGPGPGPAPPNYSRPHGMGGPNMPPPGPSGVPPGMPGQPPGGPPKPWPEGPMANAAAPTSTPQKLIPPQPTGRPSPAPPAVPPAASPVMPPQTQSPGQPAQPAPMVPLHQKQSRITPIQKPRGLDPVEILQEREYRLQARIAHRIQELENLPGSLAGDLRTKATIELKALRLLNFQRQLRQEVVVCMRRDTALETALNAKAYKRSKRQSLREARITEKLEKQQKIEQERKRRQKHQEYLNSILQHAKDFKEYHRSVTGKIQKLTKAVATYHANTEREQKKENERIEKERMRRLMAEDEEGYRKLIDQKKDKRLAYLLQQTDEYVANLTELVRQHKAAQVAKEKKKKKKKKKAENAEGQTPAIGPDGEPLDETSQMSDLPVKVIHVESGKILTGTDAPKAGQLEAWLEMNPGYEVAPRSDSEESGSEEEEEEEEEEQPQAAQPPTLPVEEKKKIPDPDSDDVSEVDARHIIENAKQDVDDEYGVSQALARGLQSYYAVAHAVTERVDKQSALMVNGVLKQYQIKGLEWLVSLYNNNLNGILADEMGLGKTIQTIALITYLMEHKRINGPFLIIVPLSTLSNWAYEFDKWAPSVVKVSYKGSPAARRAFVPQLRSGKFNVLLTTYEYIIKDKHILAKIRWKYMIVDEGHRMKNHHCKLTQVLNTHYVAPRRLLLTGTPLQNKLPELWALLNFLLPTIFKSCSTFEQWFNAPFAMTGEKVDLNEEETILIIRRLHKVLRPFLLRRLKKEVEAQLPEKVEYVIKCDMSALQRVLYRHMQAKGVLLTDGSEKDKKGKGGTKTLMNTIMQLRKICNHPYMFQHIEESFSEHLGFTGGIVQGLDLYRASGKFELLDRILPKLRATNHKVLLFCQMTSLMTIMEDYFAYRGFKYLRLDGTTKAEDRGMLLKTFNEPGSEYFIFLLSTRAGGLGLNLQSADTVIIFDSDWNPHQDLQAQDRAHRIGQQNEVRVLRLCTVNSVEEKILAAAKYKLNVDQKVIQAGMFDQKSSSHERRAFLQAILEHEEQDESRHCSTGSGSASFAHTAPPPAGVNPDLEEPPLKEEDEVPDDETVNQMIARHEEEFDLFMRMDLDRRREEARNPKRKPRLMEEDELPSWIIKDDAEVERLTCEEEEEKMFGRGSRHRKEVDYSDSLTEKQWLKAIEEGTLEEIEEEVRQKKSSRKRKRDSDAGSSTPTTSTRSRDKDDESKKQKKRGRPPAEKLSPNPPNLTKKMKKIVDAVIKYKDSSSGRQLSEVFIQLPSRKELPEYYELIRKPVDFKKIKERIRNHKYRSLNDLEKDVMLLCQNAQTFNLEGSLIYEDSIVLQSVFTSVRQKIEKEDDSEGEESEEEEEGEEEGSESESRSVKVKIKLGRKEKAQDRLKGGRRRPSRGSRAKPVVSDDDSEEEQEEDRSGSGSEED
# Outline: as §1
# Chain of BRM (P51531 whole entry): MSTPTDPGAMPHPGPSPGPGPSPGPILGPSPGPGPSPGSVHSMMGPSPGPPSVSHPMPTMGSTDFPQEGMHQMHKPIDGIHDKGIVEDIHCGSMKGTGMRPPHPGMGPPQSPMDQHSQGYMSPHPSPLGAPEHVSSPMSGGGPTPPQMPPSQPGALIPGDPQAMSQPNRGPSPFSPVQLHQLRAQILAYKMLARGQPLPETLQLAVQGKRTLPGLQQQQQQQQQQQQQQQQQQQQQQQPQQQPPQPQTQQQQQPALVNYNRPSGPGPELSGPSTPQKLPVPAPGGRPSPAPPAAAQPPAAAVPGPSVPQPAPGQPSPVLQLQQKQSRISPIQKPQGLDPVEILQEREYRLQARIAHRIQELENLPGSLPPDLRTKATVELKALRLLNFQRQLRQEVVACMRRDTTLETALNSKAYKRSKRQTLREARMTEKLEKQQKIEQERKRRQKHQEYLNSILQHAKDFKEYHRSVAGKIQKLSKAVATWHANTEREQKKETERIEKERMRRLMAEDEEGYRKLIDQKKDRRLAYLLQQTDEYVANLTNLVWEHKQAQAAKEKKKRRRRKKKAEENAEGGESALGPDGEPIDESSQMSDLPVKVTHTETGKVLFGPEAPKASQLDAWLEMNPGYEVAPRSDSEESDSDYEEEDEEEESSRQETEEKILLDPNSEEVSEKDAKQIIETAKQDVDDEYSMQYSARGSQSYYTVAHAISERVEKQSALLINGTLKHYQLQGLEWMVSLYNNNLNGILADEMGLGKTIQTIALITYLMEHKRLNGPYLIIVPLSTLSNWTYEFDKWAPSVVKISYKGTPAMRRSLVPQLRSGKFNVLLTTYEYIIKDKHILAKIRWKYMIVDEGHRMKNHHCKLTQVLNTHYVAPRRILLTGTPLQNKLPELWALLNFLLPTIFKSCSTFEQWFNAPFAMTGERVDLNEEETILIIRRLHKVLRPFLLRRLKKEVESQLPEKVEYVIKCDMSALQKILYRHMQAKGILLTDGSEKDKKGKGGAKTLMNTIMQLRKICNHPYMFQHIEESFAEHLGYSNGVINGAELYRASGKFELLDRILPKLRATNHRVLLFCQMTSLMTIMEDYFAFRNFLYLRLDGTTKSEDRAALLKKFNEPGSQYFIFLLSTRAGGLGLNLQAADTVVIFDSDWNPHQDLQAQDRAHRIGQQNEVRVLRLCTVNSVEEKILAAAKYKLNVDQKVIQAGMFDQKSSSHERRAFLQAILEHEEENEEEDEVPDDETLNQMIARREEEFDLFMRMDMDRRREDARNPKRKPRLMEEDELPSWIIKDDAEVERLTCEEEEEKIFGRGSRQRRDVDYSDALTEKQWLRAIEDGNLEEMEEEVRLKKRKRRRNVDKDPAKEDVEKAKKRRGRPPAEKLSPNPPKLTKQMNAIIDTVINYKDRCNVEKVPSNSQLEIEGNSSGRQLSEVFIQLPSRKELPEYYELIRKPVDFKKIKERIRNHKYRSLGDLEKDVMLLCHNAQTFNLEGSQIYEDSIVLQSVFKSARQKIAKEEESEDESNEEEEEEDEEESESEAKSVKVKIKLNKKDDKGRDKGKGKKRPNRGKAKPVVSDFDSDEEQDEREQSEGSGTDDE
SMILES,BRM Max % Inhibition (BRM) [%],IC50 (BRM) [µM],IC50 (BRG-1) [µM],Emax (BRG-1) [%]
CC(C)(O)c1cccc(C(=O)NCC(=O)Nc2nc(-c3cccc(-c4ccncc4)c3)cs2)c1 [Compound 77],>90,0.1 to 1,0.1 to 1,> 80
"CC(C)(CN)c1cccc(C(=O)NCC(=O)Nc2nc(-c3cccc(-c4cccc(CN)c4)c3)cs2)c1 [Compound 209, 3-(2-amino-1,1-dimethyl-ethyl)-N-[2-[[4-[3-[3-(aminomethyl)phenyl]phenyl]thiazol-2-yl]amino]-2-oxo-ethyl]benzamide]",>90,0.1 to 1,1 to 5,> 50
"Cc1cc(C(=O)NCC(=O)Nc2nc(-c3cccc(-c4ccncc4)c3)cs2)cc(C(C)(C)CN)c1 [Compound 63, 3-(1-amino-2-methylpropan-2-yl)-5-methyl-N-(2-oxo-2-((4-(3-(pyridin-4-yl)phenyl)thiazol-2-yl)amino)ethyl)benzamide]",>80,1 to 5,> 5,> 60
"CN1C[C@](C)(C#N)c2cc(C(=O)NCC(=O)Nc3nc(-c4cc(F)cc(N5CCC5)c4)cs3)ccc21 [Compound 288, (R)-N-(2-((4-(3-(azetidin-1-yl)-5-fluorophenyl)thiazol-2-yl)amino)-2-oxoethyl)-3-cyano-1,3-dimethylindoline-5-carboxamide]",>75,0.1 to 1,> 5,> 75

# Now from value to molecule:
BRM Max % Inhibition (BRM) [%],IC50 (BRM) [µM],IC50 (BRG-1) [µM],Emax (BRG-1) [%],SMILES
>70,0.1 to 1,> 5,> 40,"C[C@@H]1CN(c2cccc(-c3csc(NC(=O)CNC(=O)c4ccc5c(c4)[C@H](CO)CC5)n3)n2)C[C@H](C)O1 [Compound 162, (3R)-N-[2-[[4-[6-[(cis)-2,6-dimethylmorpholin-4-yl]-2-pyridyl]thiazol-2-yl]amino]-2-oxo-ethyl]-3-(hydroxymethyl)indane-5-carboxamide]"
>95,< 0.1,< 0.1,> 95,"C[C@@H]1CN(c2cccc(-c3csc(NC(=O)CNC(=O)c4ccc5c(c4)[C@](C)(C#N)CCO5)n3)n2)C[C@H](C)O1 [Compound 153, (R)-4-cyano-N-(2-((4-(6-((cis)-2,6-dimethylmorpholino)pyridin-2-yl)thiazol-2-yl)amino)-2-oxoethyl)-4-methylchroman-6-carboxamide]"
>95,< 0.1,< 0.1,> 90,"CC1(CO)CCc2ccc(C(=O)NCC(=O)Nc3nc(-c4cccc(-c5ccncc5)c4)cs3)cc21 (single isomer, unassigned) [Compound 105]"
>95,< 0.1,0.1 to 1,> 95,"CC1(F)COCc2ccc(C(=O)NCC(=O)Nc3nc(-c4cccc(N5CCC5)c4)cs3)cc21 (stereo not shown) [Compound 356, N-(2-((4-(3-(azetidin-1-yl)phenyl)thiazol-2-yl)amino)-2-oxoethyl)-4-fluoro-4-methylisochromane-6-carboxamide]"
>95,< 0.1,< 0.1,> 95,"C[C@@H]1CN(c2cccc(-c3csc(NC(=O)CNC(=O)c4cnc5c(c4)[C@](C)(C#N)CC5)n3)c2)C[C@H](C)O1 [Compound 170, (R)-5-cyano-N-(2-((4-(3-((cis)-2,6-dimethylmorpholino)phenyl)thiazol-2-yl)amino)-2-oxoethyl)-5-methyl-6,7-dihydro-5H-cyclopenta[b]pyridine-3-carboxamide]"
>95,< 0.1,0.1 to 1,> 80,"C[C@@H]1CN(c2cccc(-c3csc(NC(=O)CNC(=O)c4ccc(F)c(C(C)(C)CO)c4)n3)c2)C[C@H](C)O1 [Compound 200, N-(2-((4-(3-((cis)-2,6-dimethylmorpholino)phenyl)thiazol-2-yl)amino)-2-oxoethyl)-4-fluoro-3-(1-hydroxy-2-methylpropan-2-yl)benzamide]"
